Measurements reported in patent US20250241901A1, “ACTIVATION OF MNRR1 / CHCHD2 AS A THERAPEUTIC TARGET FOR MITOCHONDRIA ASSOCIATED DISORDERS” (Wayne State University, priority 2024, published 2025).

How the values were obtained:
[1] = system: MELAS cybrid cells; assay: Mitophagy markers in MELAS cybrid cells (immunoblot); assay type: cell-based, human; conditions: 10 μM, 48 h
Method: FIGS. 7A-7E: MNRR1 activation by tizoxanide enhances mtDNA biogenesis and mitophagy to shift heteroplasmy in MELAS cells. FIG. 7A: Oxygen consumption measured from MELAS cybrid cells treated with vehicle (DMSO) or tizoxanide (10 μM) for 48 h (n=4 biological replicates, error bars represent SE). FIG. 7B: Haelll restriction enzyme digestion of a PCR-amplified fragment of mtDNA harboring the m.3243A>G mutation from DW7 cells treated with vehicle (DMSO) or tizoxanide (10 μM) for 144 h. […] FIG. 7C: Genes identified using qPCR of MELAS cybrid cells stably overexpressing EV or MNRR1. FIG. 7D: MtDNA levels are shown relative to nuclear DNA (nDNA) (GAPDH) (n=5 biological replicates, error bars represent SE). FIG. 7E: Equal amounts of MELAS cybrid cell lysates, treated with vehicle (DMSO) or tizoxanide (10 μM) for 48 h, were separated on an SDS-PAGE gel and probed for PGC1a, PINK1, LC3 A/B, MNRR1, and Tubulin. […]
Immunoblotting: Immunoblotting was performed as described previously. […] The clear supernatants were transferred to new tubes and quantified using the Bradford reagent with BSA as standard (BioRad, Hercules. CA). […] For detection after immunoblotting, the SuperSignal™ West Pico PLUS substrate (ThermoFisher, Waltham, MA) was used to generate chemiluminescence signal, which was detected with X-Ray film (RadTech, Vassar, MI).

[2] = system: MNRR1; assay: MNRR1 transcript and protein levels in decidua and placenta of LPS-injected dams; assay type: in vivo, mouse
Method: FIGS. 2A-2F. Nitazoxanide prevents preterm delivery and improves neonatal mortality in vivo. (FIG. 2A) Schematic illustration depicting the administration of nitazoxanide (marketed under the commercial name Alinia) and LPS in the murine model of preterm birth. (FIG. 2B) Gestational length of mice was obtained using video-monitoring until delivery (n=6-8 animals). (FIG. 2C) Neonatal mortality was determined by calculating the number of dead pups over total litter size (n=6-8 animals). […] No pups from LPS-injected dams survived beyond week 0 of birth. (FIG. 2E) MNRR1 transcript levels were measured in mouse decidual tissue (17.5 dpc). Actin was used as a housekeeping gene to normalize expression (n=4 animals for all except PBS+N, where n=3). (FIG. 2F) Equal amounts of whole placental lysates were separated on an SDS-PAGE gel and probed for MNRR1 levels. Actin was used as a loading control. Gel is representative of data obtained from 2 animals. […]
Real-time polymerase chain reaction: Total cellular RNA was extracted from mouse placental tissues or HTR8 cells by using a RNeasy Plus Mini Kit (Qiagen, Germantown, MD, USA), according to the manufacturer's instructions. […] Transcript levels were measured by real-time PCR by using SYBR green on an ABI 7500 system. […]

SMILES	mitophagy (PINK1, LC3A, LC3B, pSer-65 ubiquitin) [1]	MNRR1 transcript level in the decidua ([2]; 17.5 dpc)	MNRR1 protein level in the placenta ([2]; whole placental lysates)
O=C(Nc1ncc([N+](=O)[O-])s1)c1ccccc1O [tizoxanide, Tizoxanide]	Increased mitophagy	–	–
CC(=O)Oc1ccccc1C(=O)Nc1ncc([N+](=O)[O-])s1 [nitazoxanide, Nitazoxanide]	–	restored the LPS-induced reduction of MNRR1	restored the LPS-induced reduction of MNRR1
